Laboratory results from ChEMBL document CHEMBL4152249, “Alkoxyphenylthiazoles with broad-spectrum activity against multidrug-resistant gram-positive bacterial pathogens” (Eur J Med Chem, 2018).
Converted amounts (≈) assume the structure as drawn. The source made the active and inactive calls. The rule behind the calls is not given here.

Experiments:
[1] = test system: Staphylococcus aureus; test: Antibacterial activity against vancomycin-resistant Staphylococcus aureus VRSA10 after 20 hrs by broth microdilution assay; assay type: functional; conditions: VRSA10, 20 h
[2] = test system: Staphylococcus aureus; test: Bactericidal activity against methicillin-resistant Staphylococcus aureus NRS385 incubated for 20 hrs followed by re-plating on tryptic soy agar plates at 37 degC for 18 hrs by broth microdilution assay; assay type: functional
[3] = test system: Enterococcus faecalis; test: Antibacterial activity against vancomycin-resistant Enterococcus faecalis ATCC 51299 after 20 hrs by broth microdilution assay; assay type: functional; conditions: ATCC 51299, 20 h
[4] = test system: Enterococcus faecium; test: Bactericidal activity against vancomycin-resistant Enterococcus faecium ATCC 700221 incubated for 20 hrs followed by re-plating on tryptic soy agar plates at 37 degC for 18 hrs by broth microdilution assay; assay type: functional
[5] = test system: Staphylococcus aureus; test: Antibacterial activity against methicillin-resistant Staphylococcus aureus 2658 RCMB after 20 hrs by broth microdilution assay; assay type: functional
[6] = test system: Staphylococcus aureus; test: Antibacterial activity against methicillin-resistant Staphylococcus aureus after 20 hrs by broth microdilution assay; assay type: functional
[7] = test system: Staphylococcus aureus; test: Antibacterial activity against methicillin-resistant Staphylococcus aureus USA400 NRS123 after 14 passages over 2 weeks by broth microdilution method; assay type: functional, organism-based
[8] = test system: Staphylococcus epidermidis; test: Antibacterial activity against methicillin-resistant Staphylococcus epidermidis NRS101 after 20 hrs by broth microdilution assay; assay type: functional; conditions: NRS101, 20 h
[9] = test system: Streptococcus pneumoniae; test: Ratio of MBC to MIC for methicillin-resistant Streptococcus pneumoniae ATCC 700677; assay type: functional
[10] = Selectivity index, ratio of compound effect for human Caco2 cells at maximum non-toxic concentration concentration to MIC for vancomycin-resistant Enterococcus faecium ATCC 700221; assay type: toxicity; conditions: Caco-2 cells, read-out: Selectivity Index
[11] = test system: Staphylococcus aureus; test: Bactericidal activity against vancomycin-resistant Staphylococcus aureus VRSA10 incubated for 20 hrs followed by re-plating on tryptic soy agar plates at 37 degC for 18 hrs by broth microdilution assay; assay type: functional
[12] = Volume of distribution at steady state in Sprague-Dawley rat at 5 uM, iv administered as single bolus dose by LC-MS/MS analysis; assay type: ADME, organism-based; conditions: in vivo, read-out: Vdss
[13] = AUC in Sprague-Dawley rat at 5 uM, iv administered as single bolus dose by LC-MS/MS analysis; assay type: ADME, organism-based; conditions: in vivo
[14] = Clearance in Sprague-Dawley rat at 5 uM, iv administered as single bolus dose by LC-MS/MS analysis; assay type: ADME, organism-based; conditions: in vivo
[15] = test system: Staphylococcus aureus; test: Antibacterial activity against methicillin-resistant Staphylococcus aureus NRS385 after 20 hrs by broth microdilution assay; assay type: functional; conditions: NRS385, 20 h
[16] = test system: Enterococcus faecalis; test: Bactericidal activity against vancomycin-resistant Enterococcus faecalis ATCC 51299 incubated for 20 hrs followed by re-plating on tryptic soy agar plates at 37 degC for 18 hrs by broth microdilution assay; assay type: functional
[17] = test system: Staphylococcus aureus; test: Bactericidal activity against methicillin-resistant Staphylococcus aureus NRS386 incubated for 20 hrs followed by re-plating on tryptic soy agar plates at 37 degC for 18 hrs by broth microdilution assay; assay type: functional
[18] = test system: Staphylococcus aureus; test: Bactericidal activity against vancomycin-resistant Staphylococcus aureus VRSA12 incubated for 20 hrs followed by re-plating on tryptic soy agar plates at 37 degC for 18 hrs by broth microdilution assay; assay type: functional
[19] = test system: Staphylococcus aureus; test: Antibacterial activity against Staphylococcus aureus after 20 hrs by broth microdilution assay; assay type: functional
[20] = Terminal phase volume of distribution at […] in Sprague-Dawley rat at 5 uM, iv administered as single bolus dose by LC-MS/MS analysis; assay type: ADME, organism-based; conditions: in vivo, read-out: Vbeta
[21] = test system: Streptococcus pneumoniae; test: Bactericidal activity against methicillin-resistant Streptococcus pneumoniae ATCC 700677 incubated for 20 hrs followed by re-plating on tryptic soy agar plates at 37 degC for 18 hrs by broth microdilution assay; assay type: functional
[22] = test system: Caco-2; test: Cytotoxicity against human Caco2 cells assessed as effect on cell viability up to 64 ug/ml after 2 hrs by MTS assay; assay type: cell-based; conditions: caco-2, 2 h
[23] = test system: Staphylococcus aureus; test: Antibacterial activity against vancomycin-resistant Staphylococcus aureus VRSA12 after 20 hrs by broth microdilution assay; assay type: functional; conditions: VRSA12, 20 h
[24] = test system: Streptococcus pneumoniae; test: Bactericidal activity against cephalosporin-resistant Streptococcus pneumoniae ATCC 51916 incubated for 20 hrs followed by re-plating on tryptic soy agar plates at 37 degC for 18 hrs by broth microdilution assay; assay type: functional
[25] = Selectivity index, ratio of compound effect for human Caco2 cells at maximum non-toxic concentration concentration to MIC for vancomycin-resistant Enterococcus faecalis ATCC 51299; assay type: toxicity; conditions: Caco-2 cells, read-out: Selectivity Index
[26] = test system: Streptococcus pneumoniae; test: Antibacterial activity against cephalosporin-resistant Streptococcus pneumoniae ATCC 51916 after 20 hrs by broth microdilution assay; assay type: functional; conditions: ATCC 51916, 20 h
[27] = Selectivity index, ratio of compound effect for human Caco2 cells at maximum non-toxic concentration concentration to MIC for cephalosporin-resistant Streptococcus pneumoniae ATCC 51916; assay type: toxicity; conditions: Caco-2 cells, read-out: Selectivity Index
[28] = test system: Listeria monocytogenes; test: Bactericidal activity against Listeria monocytogenes ATCC 19111 incubated for 20 hrs followed by re-plating on tryptic soy agar plates at 37 degC for 18 hrs by broth microdilution assay; assay type: functional
[29] = test system: Staphylococcus aureus; test: Bactericidal activity against Staphylococcus aureus USA400 assessed as reduction in colony forming unit at 3 to 6 times MIC treated for 2 hrs followed by re-plating on tryptic soy agar plates at 37 degC for 18 to 20 hrs by broth microdilution assay; assay type: functional; parameters: scale not given: the % may be the effect or the level left
[30] = Selectivity index, ratio of compound effect for human Caco2 cells at maximum non-toxic concentration concentration to MIC for methicillin-resistant Streptococcus pneumoniae ATCC 700677; assay type: toxicity; conditions: Caco-2 cells, read-out: Selectivity Index
[31] = Half life in Sprague-Dawley rat at 5 uM, iv administered as single bolus dose by LC-MS/MS analysis; assay type: ADME, organism-based; conditions: in vivo
[32] = test system: Staphylococcus aureus; test: Bactericidal activity against Staphylococcus aureus USA300 NRS384 incubated for 20 hrs followed by re-plating on tryptic soy agar plates at 37 degC for 18 hrs by broth microdilution assay; assay type: functional
[33] = test system: Staphylococcus aureus; test: Bactericidal activity against Staphylococcus aureus USA400 NRS123 incubated for 20 hrs followed by re-plating on tryptic soy agar plates at 37 degC for 18 hrs by broth microdilution assay; assay type: functional
[34] = test system: Listeria monocytogenes; test: Antibacterial activity against Listeria monocytogenes ATCC 19111 after 20 hrs by broth microdilution assay; assay type: functional; conditions: ATCC 19111, 20 h
[35] = test system: Staphylococcus aureus; test: Antibacterial activity against methicillin-resistant Staphylococcus aureus NRS386 after 20 hrs by broth microdilution assay; assay type: functional; conditions: NRS386, 20 h
[36] = test system: Streptococcus pneumoniae; test: Antibacterial activity against methicillin-resistant Streptococcus pneumoniae ATCC 700677 after 20 hrs by broth microdilution assay; assay type: functional; conditions: ATCC 700677, 20 h
[37] = test system: Staphylococcus aureus; test: Bactericidal activity against methicillin-sensitive Staphylococcus aureus NRS107 incubated for 20 hrs followed by re-plating on tryptic soy agar plates at 37 degC for 18 hrs by broth microdilution assay; assay type: functional
[38] = Selectivity index, ratio of compound effect for human Caco2 cells at maximum non-toxic concentration concentration to MIC for methicillin-resistant Staphylococcus epidermidis NRS101; assay type: toxicity; conditions: Caco-2 cells, read-out: Selectivity Index
[39] = test system: Enterococcus faecium; test: Antibacterial activity against vancomycin-resistant Enterococcus faecium ATCC 700221 after 20 hrs by broth microdilution assay; assay type: functional; conditions: ATCC 700221, 20 h
[40] = test system: Staphylococcus aureus; test: Bactericidal activity against linezolid-resistant Staphylococcus aureus NRS119 incubated for 20 hrs followed by re-plating on tryptic soy agar plates at 37 degC for 18 hrs by broth microdilution assay; assay type: functional
[41] = test system: Staphylococcus epidermidis; test: Bactericidal activity against methicillin-resistant Staphylococcus epidermidis NRS101 incubated for 20 hrs followed by re-plating on tryptic soy agar plates at 37 degC for 18 hrs by broth microdilution assay; assay type: functional
[42] = Selectivity index, ratio of compound effect for human Caco2 cells at maximum non-toxic concentration concentration to MIC for Listeria monocytogenes ATCC 19111; assay type: toxicity; conditions: Caco-2 cells, read-out: Selectivity Index

CCCCCCCOc1ccc(-c2nc(C)c(-c3ccnc(NC(=N)N(C)C)n3)s2)cc1
MIC [1]: 4 µg/mL (≈ 8.84 µM)
MBC [2]: 8 µg/mL (≈ 17.7 µM)
MIC [3]: 8 µg/mL (≈ 17.7 µM)
MBC [4]: 8 µg/mL (≈ 17.7 µM)
MIC [5]: 1.56 µg/mL (≈ 3.45 µM)
MIC [6]: 4 to 8 µg/mL (≈ 8.84 to 17.7 µM)
Activity [7]: Active
MIC [8]: 4 µg/mL (≈ 8.84 µM)
Ratio [9]: 1
selectivity ratio [10]: 7 to 82
MBC [11]: 4 µg/mL (≈ 8.84 µM)
Vd at 5 µM [12]: 4.36 L
AUC at 5 µM [13]: 1140 ng·h/mL
clearance at 5 µM [14]: 29.2 mL/min
MIC [15]: 8 µg/mL (≈ 17.7 µM)
MBC [16]: 8 µg/mL (≈ 17.7 µM)
MBC [17]: 4 µg/mL (≈ 8.84 µM)
MBC [18]: 4 µg/mL (≈ 8.84 µM)
MIC [19]: 4 µg/mL (≈ 8.84 µM)
Vd at 5 µM [20]: 10.4 L
MBC [21]: 8 µg/mL (≈ 17.7 µM)
Activity [22]: Non-Toxic
MIC [23]: 4 µg/mL (≈ 8.84 µM)
MBC [24]: 8 µg/mL (≈ 17.7 µM)
selectivity ratio [25]: 7 to 82
MIC [26]: 8 µg/mL (≈ 17.7 µM)
selectivity ratio [27]: 7 to 82
MBC [28]: 4 µg/mL (≈ 8.84 µM)
Activity [29]: 100%
selectivity ratio [30]: 7 to 82
half-life at 5 µM [31]: 4 h
MBC [32]: 4 µg/mL (≈ 8.84 µM)
MBC [33]: 8 µg/mL (≈ 17.7 µM)
MIC [34]: 4 µg/mL (≈ 8.84 µM)
MIC [35]: 4 µg/mL (≈ 8.84 µM)
MIC [36]: 4 µg/mL (≈ 8.84 µM)
MBC [37]: 4 µg/mL (≈ 8.84 µM)
selectivity ratio [38]: 7 to 82
MIC [39]: 8 µg/mL (≈ 17.7 µM)
MBC [40]: 8 µg/mL (≈ 17.7 µM)
MBC [41]: 4 µg/mL (≈ 8.84 µM)
selectivity ratio [42]: 7 to 82
